Measurements taken from PubChem BioAssay (NCI).
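96-well plates; 48 h exposure; 5 concentrations. Endpoints by linear interpolation between flanking doses. Not reached: highest tested concentration assigned. GI50 is the concentration that inhibits growth by half. The concentration for full growth arrest is given as TGI.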

Assays:
Assay in all cases: DTP human tumour cell line panel, 48 h
ACHN renal = test system: ACHN renal
K-562 leukemia = test system: K-562 leukemia
SK-OV-3 ovarian = test system: SK-OV-3 ovarian
UACC-257 melanoma = test system: UACC-257 melanoma
SF-539 CNS = test system: SF-539 CNS
HT29 colon = test system: HT29 colon
A498 renal = test system: A498 renal
UO-31 renal = test system: UO-31 renal
NCI-H522 lung = test system: NCI-H522 lung
SN12C renal = test system: SN12C renal

| SMILES | GI50 (ACHN renal) [µM] | TGI (ACHN renal) [µM] | GI50 (K-562 leukemia) [µM] | TGI (K-562 leukemia) [µM] | GI50 (SK-OV-3 ovarian) [µM] | TGI (SK-OV-3 ovarian) [µM] | GI50 (UACC-257 melanoma) [µM] | TGI (UACC-257 melanoma) [µM] | GI50 (SF-539 CNS) [µM] | GI50 (HT29 colon) [µM] | GI50 (A498 renal) [µM] | TGI (A498 renal) [µM] | GI50 (UO-31 renal) [µM] | TGI (UO-31 renal) [µM] | GI50 (NCI-H522 lung) [µM] | TGI (NCI-H522 lung) [µM] | GI50 (SN12C renal) [µM] | TGI (SN12C renal) [µM] | TGI (SF-539 CNS) [µM] | TGI (HT29 colon) [µM] |
| --- | --- | --- | --- | --- | --- | --- | --- | --- | --- | --- | --- | --- | --- | --- | --- | --- | --- | --- | --- | --- |
| COc1ccc(C(=O)/C=C/c2c(C(F)(F)F)nc3ccccn23)cc1OC | 2.6 | > 39.5 | 0.377 | > 100 | 2.38 | 6.13 | 2.43 | > 100 | 2.14 | 0.786 | 3.46 | 21.7 | 1.62 | 29.5 | 0.133 | 0.929 | 3.53 | > 100 |  |  |
| Cl.[O-]c1cccc2cccnc12.[O-]c1cccc2cccnc12.[O-]c1cccc2cccnc12.[O-]c1cccc2cccnc12.[Ti+4] | 2.62 | > 100 | 0.303 |  | 3.94 | > 73.8 | 0.712 | > 35.1 | 2.06 | 0.914 | 8.24 | 21.7 | 5.59 | > 100 | 0.12 | 0.256 | 2.74 | > 91.1 | 14.4 | 6.86 |
| Cc1cc(C(=O)CC(Cl)=C(Cl)Cl)c(Cl)cc1Cl | 18.1 | 39.4 | 20.7 | 47.6 | 49.8 | > 100 | 19.5 | 44.9 | 13.1 | 34.6 | 18.2 | 51.5 | 22.5 | 55.4 | 22.6 | 69.4 | 19.5 | 44.7 | 29.9 | > 100 |
| CN(C)c1ccc2cc3c(cc2c1)Oc1ccccc1N3.[Cl][Zn][Cl] | 1.64 | 3.22 | 3.05 | > 100 | 17 | 33.3 | 3.16 | 9.36 | 3.68 | 4.09 | 16.9 | 34.7 | 1.44 | 3.3 | 1.94 | 4.94 | 11.6 | 63.9 | 15.6 | > 100 |
| CN1CCN(C(=O)[C@@]2(C)CC[C@]3(C)CC[C@]4(C)C(=CC[C@@H]5[C@@]6(C)CC[C@H](OC(=O)c7cccnc7)C(C)(C)[C@@H]6CC[C@]54C)[C@@H]3C2)CC1 | 1.88 | 3.39 | 2.15 | 6.36 | 10.4 | 22 | 1.83 | 3.53 | 1.6 | 1.06 | 4.38 | 18.4 | 1.43 | 2.86 | 1.95 | 4.17 | 1.56 | 3.15 | 3.06 | 2.69 |
| O=C(C(=O)c1cccnc1)c1cccnc1 | > 100 | > 100 | > 100 | > 100 | > 100 | > 100 | > 100 | > 100 | > 100 | > 100 | > 100 | > 100 | > 100 | > 100 | > 100 | > 100 | > 100 | > 100 | > 100 | > 100 |
| CC(C)c1ccc(C(c2c(O)c3ccccc3oc2=O)c2c(O)c3ccccc3oc2=O)cc1 |  | 86.7 |  | 51.4 |  | 65.8 |  | 53 |  |  |  | 35.4 |  | 28.4 |  | 45.6 |  | 48.6 | 39.4 | 40.2 |
| COC(=O)c1cc2c([nH]c3ccccc32)c(-c2nc3ccccc3cc2CO)n1 | 30 | > 100 | > 100 | > 100 | 55.9 | > 100 | > 100 | > 100 | 47 | > 100 | 30.4 | > 100 | > 100 | > 100 | 73 | > 100 | > 100 | > 100 | > 100 | > 100 |
| CN(C)c1ccc(/C=N/n2c(CCCCc3n[nH]c(=S)n3/N=C/c3ccc(N(C)C)cc3)n[nH]c2=S)cc1 | > 100 | > 100 | > 100 | > 100 | > 100 | > 100 | > 100 | > 100 | > 100 | > 100 | > 100 | > 100 | > 100 | > 100 | > 100 | > 100 | > 100 | > 100 | > 100 | > 100 |
| CC[C@@]1(O)C(=O)OCc2c1cc1n(c2=O)Cc2cc3cccc(N)c3nc2-1 | 2.81 | 10.3 | > 100 | > 100 | 5.13 | 29.7 | > 100 | > 100 | 3.7 | > 100 | 7.17 | 60.3 | 8.44 | > 100 | 3.92 | > 100 | 3.58 | > 100 | 17 | > 100 |
| CC(/C=C1\CCC(CN(C)C)C1=O)c1cccc(Br)c1 (configuration not stated) |  | 18 |  | 9.43 |  | > 100 |  | 31.6 |  |  |  | > 58.5 |  | 33.2 |  | 22 |  | 43.3 | 33.3 | 20.7 |
| CN(CCCCCCCCNc1ccnc2ccccc12)Cc1ccc(-c2ccc(-c3ccc(C#N)cc3)s2)cc1 | 1.28 | 2.55 | 0.0172 | 0.107 | 1.65 | 3.27 | 0.482 | 1.6 | 0.797 | 0.318 | 1.22 | 2.6 | 1.23 | 2.57 | 1.35 | 3.36 | 1.37 | 3 | 2.23 | 1.77 |
| CCN(CC)CCOc1ccc(NC(=O)C(C(C)C)N2C(=O)/C(=C/c3ccc(Br)cc3)SC2=S)cc1 (configuration not stated) | 1.78 | 3.25 | 2.24 | 5.86 | 15.9 | 31.7 | 2.2 | 5.14 | 1.87 | 2.88 | 1.52 | 14.6 | 2.72 | 12.6 | 2.03 | 4.55 | 1.71 | 3.29 | 3.55 | 8.51 |
| CCCCCC1CC=CC(NC(=O)OCc2ccccc2)C1/C=C/CCCC1OCCO1 (configuration not stated) |  | > 100 |  | > 100 |  | > 100 |  | > 100 |  |  |  | 98.7 |  | 72.2 |  | > 100 |  | > 100 | > 100 | > 100 |
| COC(=O)/C=C(C)/C=C/c1c(C)c(C(C)=O)c(C)n1C |  | > 100 |  | > 100 |  | > 100 |  | > 100 |  |  |  | > 100 |  | > 100 |  | > 100 |  | > 100 | > 100 | > 100 |
| COc1ccc(Cl)cc1Nc1nc(C(F)(F)F)ccc1C(=O)N/N=C/c1ccccc1Cl | 2.01 | > 25.4 | 10.7 | > 21.8 | 1.58 | 12.5 | 1.82 | 4.62 | 1.85 | 4.24 | 3.44 | 19.5 | 3.18 | > 26.8 | 2.74 | 16 | 2.56 | > 100 | 5.03 | > 100 |
